Article PMC4669722, “Antitumour potential of BPT: a dual inhibitor of cdk4 and tubulin polymerization” (Cell Death & Disease, 2015)

Columns and labels:
HCT-116 tumours = assay: HCT-116 xenograft efficacy in SCID mice; format: in vivo; details: 100 mpk intraperitoneal, 9 days, versus vehicle, P<0.05
Method: A group of 60 SCID (SCID strain-CBySmn.CB17-Prkdc^scid/J; The Jackson Laboratory, Bar harbor, ME, USA; Stock no. 001803) male mice weighing 18–25 g and 6–8 weeks old were used for the studies. Human colon carcinoma, HCT-116 (ATCC; cat. no. CCL-247) cells were grown in McCoy's 5A medium supplemented with 10% FBS (Sigma-Aldrich). The cultured cells were injected subcutaneously into the dorsal side of SCID mice at the dose of 6.6 × 10^6 cells in 0.2 ml of suspension. When the tumour growth reached to about 4–6 mm in diameter (over about 5 days), the animals were randomly divided into eight groups, each containing seven mice. The treatments were continued for 9 consecutive days intraperitoneally. Flavopiridol (2.5 mpk) was used as a positive control in this study. Tumour size was recorded at 2–5 day intervals. Tumour weight (mg) was estimated according to the formula for a prolate ellipsoid: (length (mm) × width (mm)^2) × 0.5) assuming specific gravity to be one and π to be 3. Tumour growth in compound treated animals is calculated as T/C (treated/control) × 100% and growth inhibition percent (% GI) was (100−% T/C).[48], [49], [50]

[1] = Body weight measurements in xenograft models; format: in vivo, SCID mice
Method: The body weights of animals in different treatment and control groups were monitored by taking the measurements daily during the treatment schedule. By considering the body weight at the start of the treatment as 100%, the percent weight loss was calculated on subsequent days of treatments.

MTD finding study = format: in vivo; details: mice
Method: Swiss-albino mice were used to determine the MTD for the compound. BPT was weighed and mixed with 0.5% (w/v) carboxymethylcellulose and triturated with Tween-20 (secundum artum) with gradual addition of water to make up the final concentration. Care was taken not to exceed >0.25% of Tween-20 in the final formulation of the BPT. In this study, six animals per group were administered with BPT at different doses for 5 days (Q1D × 5) via intraperitoneal route. Animals were monitored for weight loss, morbidity symptoms and mortality up to 2 weeks by the end of treatment. Significant weight loss was considered when mean animal weight dropped by ⩾10% and was considered highly significant when the drop was ⩾20%.

[2] = test system: several human cancer cells; assay: Growth inhibition of several human cancer cells; format: cell-based
Method: (§1) All 10 human cancer cell lines were maintained at 37 °C in 5% CO2 in RPMI-1640 medium, supplemented with 10% foetal calf serum and 100 μg/ml normocin. The 10 cancer cell lines used for screening were all obtained from ATCC (Manassas, VA, USA); they were the NSCLC (a form of cancer that is resistant to chemotherapy) lines: NCI-H460 (pRb^+, p53^+), A549 (pRb^+, p53^+), Calu-1 (pRb^+, p53-null), NCI-H1299 (pRb^+, p53-null), NCI-H358 (pRb-null, p53-null); the colon cancer line LS174T (pRb^+, p53^+); the prostate cancer line PC-3 (pRb^+, p53-null); the pancreatic cancer line MiaPaca (pRb^+, p53-mutant). The genotypes within brackets indicate the status of the tumour suppressor proteins pRb and p53. The mouse embryonic normal hepatic cell line (BNL CL2) and its SV40 large T-antigen-transformed counterpart cell line (BNL SV A.8) were also purchased from ATCC. The large T-antigen inactivates the tumour suppressor proteins p53 and pRb. The detailed procedure of cell proliferation (MTT) assay and IC50 determination was described previously.[32]

tubulin in A549 cells = assay: Tubulin polymerization/depolymerization in live cells (western blot); format: cell-based, human
Method: A549 (NSCLC) cells were seeded at a concentration of 10 000 cells per well in 1 ml complete growth medium in 24-well per 15 mm culture plates. The plates were incubated for 24 h for cell attachment and stabilization. In the first set of experiments, the cells were treated with 10 nM paclitaxel and different concentrations of BPT for 30 min (cells underwent simultaneous treatment of paclitaxel and BPT). In the second set of experiments, to study the effect of BPT on the stabilised form of tubulin, cells were pretreated with 10 nM paclitaxel for 30 min. The cell monolayer was washed two times with sterile PBS and fresh growth medium containing different concentrations of BPT were added. The plates were further incubated for 30 min, the cell monolayers were washed two times with sterile PBS at room temperature and then 100 μl tubulin extraction buffer (1 mM MgCl2, 2 mM EGTA, 0.5% NP40 and 20 mM Tris-HCl (pH 6.8)) supplemented with 2 mM phenylmethylsulfonyl fluoride, and a protease inhibitor cocktail (Sigma-Aldrich; cat. no. P8340) was added per well. After a short and vigorous vortex mixing, the cell lysates were incubated at room temperature for 5 min and then centrifuged at 16 000 r.p.m. for 10 min to separate the soluble and polymerized tubulin fractions. […]

[3] = test system: NCI-H460 (NSCLC; p53+, pRb+); assay: Cell proliferation (MTT) assay, NCI-H460; format: cell-based; details: Homo sapiens, 48 h, read-out: IC50 cell growth inhibition, NCI-H460
Method: as §1

[4] = test system: NCI-H358 (NSCLC; p53 null, pRb null); assay: Cell proliferation (MTT) assay, NCI-H358; format: cell-based; details: Homo sapiens, 48 h, read-out: IC50 cell growth inhibition, NCI-H358
Method: as §1

GSK3β = GSK3β (Homo sapiens, UniProt P49841); assay: Kinase profiling (Millipore), GSK3β; format: biochemical
Method: (§2) The in vitro kinase assays for testing against Cdk4-cyclin D1, Cdk2-cyclin A, Cdk1-cyclin B1 and Cdk9-cyclin T1 were performed in-house. The methodology and results have been reported previously.[20], [30], [31], [32], [45] The kinase profiling for 58 representative kinases was carrried out commercially at Millipore Bioscience Division, Livingston, UK.

Cdk1-cyclin B1 = Cdk1-cyclin B1 (Homo sapiens, UniProt P06493); assay: In vitro kinase assay, Cdk1-cyclin B1 (in-house); format: biochemical; details: three independent experiments; read-out: IC50 (mean±S.D.), Cdk1-cyclin B1
Method: as §2

[5] = test system: BNL SV A.8 (SV40-mediated transformed mouse embryonic hepatic cell line); assay: Long-term cell survival assay, BNL SV A.8; format: cell-based; details: BNL SV A.8, 12 days
Method: Fig. S3: Long term survival of Mouse embryonic normal hepatic cell line (BNL CL2) and SV40 mediated transformed mouse embryonic hepatic cell line (BNL SV A.8) after the treatment with BPT. The cells were treated with the diffrent concentrations of BPT and then incubated in drug free medium for 12 days. the colonies were fixed in methanol : acetic acid (2: 1) and stained with 1% crystal violet and representative plates were scanned using the gel documentation system .

Sequence of GSK3β (P49841 whole entry): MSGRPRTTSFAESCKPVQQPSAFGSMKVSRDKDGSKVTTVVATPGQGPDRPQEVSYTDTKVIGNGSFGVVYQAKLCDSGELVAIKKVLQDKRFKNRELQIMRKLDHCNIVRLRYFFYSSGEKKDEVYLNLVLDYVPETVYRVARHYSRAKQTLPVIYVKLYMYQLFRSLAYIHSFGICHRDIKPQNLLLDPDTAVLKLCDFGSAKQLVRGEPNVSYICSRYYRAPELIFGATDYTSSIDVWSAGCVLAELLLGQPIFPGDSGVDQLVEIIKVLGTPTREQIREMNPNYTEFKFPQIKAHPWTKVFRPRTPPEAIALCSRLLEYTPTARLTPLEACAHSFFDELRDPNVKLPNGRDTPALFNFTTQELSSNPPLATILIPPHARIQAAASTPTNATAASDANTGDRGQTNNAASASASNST
Sequence of Cdk1-cyclin B1 (P06493 whole entry): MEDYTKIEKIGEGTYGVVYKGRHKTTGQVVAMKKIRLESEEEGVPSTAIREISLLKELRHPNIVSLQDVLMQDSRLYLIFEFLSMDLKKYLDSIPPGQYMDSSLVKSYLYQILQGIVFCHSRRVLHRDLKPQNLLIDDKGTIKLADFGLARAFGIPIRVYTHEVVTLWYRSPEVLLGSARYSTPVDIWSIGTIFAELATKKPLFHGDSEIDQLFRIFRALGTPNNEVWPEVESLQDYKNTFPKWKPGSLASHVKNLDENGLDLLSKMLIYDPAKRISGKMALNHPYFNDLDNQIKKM
Sequence of Cdk1-cyclin B1 (P14635 whole entry partner): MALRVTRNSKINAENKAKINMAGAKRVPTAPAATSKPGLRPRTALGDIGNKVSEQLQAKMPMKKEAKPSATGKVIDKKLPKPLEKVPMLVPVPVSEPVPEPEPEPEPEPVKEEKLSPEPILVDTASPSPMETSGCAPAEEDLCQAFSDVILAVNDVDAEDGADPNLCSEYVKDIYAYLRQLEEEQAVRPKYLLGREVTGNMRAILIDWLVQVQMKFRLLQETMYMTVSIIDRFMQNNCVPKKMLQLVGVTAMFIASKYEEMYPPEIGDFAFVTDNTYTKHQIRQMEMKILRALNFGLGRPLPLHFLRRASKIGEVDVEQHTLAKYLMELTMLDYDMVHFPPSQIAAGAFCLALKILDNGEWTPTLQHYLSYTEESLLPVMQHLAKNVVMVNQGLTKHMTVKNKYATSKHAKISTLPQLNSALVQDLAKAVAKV

O=C(c1ccccc1-c1ccccc1)N1CCc2c([nH]c3ccccc23)C1 [BPT, 2-(biphenyl-2-carbonyl)-2,3,4,9-tetrahydro-1H-pyrido[3,4-b]indole]
tumour growth inhibition (HCT-116 tumours): ~ 80% | weight loss of treated animals ([1]; SCID mice-HCT116 tumour model, 100 mpk, of starting weight): < 10% | weight loss of treated animals ([1]; both tumour models (HCT-116 and NCI-H460)): statistically insignificant weight loss | maximum-tolerated dose (MTD finding study): 1000 mg/kg | IC50 [2]: < 1 µM | paclitaxel-mediated tubulin polymerization in live cells (tubulin in A549 cells; A549, simultaneous 10 nM paclitaxel and BPT, 30 min): inhibited in a dose-dependent manner | depolymerization of paclitaxel-stabilized tubulin in live cells (tubulin in A549 cells; A549 pretreated with 10 nM paclitaxel 30 min, then BPT 30 min): enhanced the tubulin depolymerization | IC50 [3]: 0.6 µM | IC50 [4]: 0.68 µM | IC50 (GSK3β): > 10 µM | IC50 (Cdk1-cyclin B1): > 500 µM | number of colonies, long-term survival [5]: selectively reduces the number of colonies
